In ChEMBL document CHEMBL4371096, “Polyoxygenated Cyclohexenes and Their Chlorinated Derivatives from the Leaves of Uvaria cherrevensis” (J Nat Prod, 2019):

Legend:
[1] = tested on: KB; assay: Cytotoxicity against human KB cells; assay type: functional, cell-based
[2] = tested on: Vero; assay: Cytotoxicity against African green monkey Vero cells; assay type: cell-based; details: Chlorocebus sabaeus
[3] = tested on: Plasmodium falciparum; assay: Antimalarial activity against drug-resistant Plasmodium falciparum K1CB1 after 48 hrs by SYBR Green1 dye based fluorescence assay; assay type: functional, organism-based; details: K1CB1, 48 h
[4] = tested on: Plasmodium falciparum; assay: Antimalarial activity against drug-sensitive Plasmodium falciparum TM4/8.2 after 48 hrs by SYBR Green1 dye based fluorescence assay; assay type: functional, organism-based; details: TM4/8.2, 48 h

Measured: IC50

CC1(C)O[C@H]2C=C[C@@H](OC(=O)c3ccccc3)[C@H](O)[C@@]2(COC(=O)c2ccccc2)O1
> 50 µM: all assays above

O=C(OC[C@]1(O)[C@H](OC(=O)c2ccccc2)C=C[C@@H](OC(=O)c2ccccc2)[C@@H]1O)c1ccccc1
> 50 µM: all assays above

O=C(OCC1=C[C@H]2Oc3ccccc3C[C@H]2[C@@H](OC(=O)c2ccccc2)[C@@H]1O)c1ccccc1
> 50 µM: all assays above

CC(=O)O[C@H]1C=CC=C(COC(=O)c2ccccc2)[C@@H]1O
> 50 µM: all assays above

O=C(OC[C@]1(O)[C@H](Cl)C=C[C@@H](OC(=O)c2ccccc2)[C@@H]1O)c1ccccc1
> 50 µM: all assays above

O=C(OCC1=C[C@@H](O)[C@H](O)[C@H](OC(=O)c2ccccc2)[C@H]1O)c1ccccc1
> 50 µM: all assays above

O=C(OC[C@]1(O)[C@H](Cl)C=C[C@H](O)[C@H]1O)c1ccccc1
> 50 µM: all assays above

CC(=O)O[C@H]1C=C[C@@H](Cl)[C@@](O)(COC(=O)c2ccccc2)[C@@H]1O
> 50 µM: all assays above

O=C(OC[C@]12O[C@H]1C=C[C@@H](OC(=O)c1ccccc1)[C@H]2O)c1ccccc1
> 50 µM: all assays above

O=C(OC[C@]1(O)[C@@H](O)C=C[C@@H](O)[C@@H]1O)c1ccccc1
> 50 µM: all assays above

CC(=O)O[C@H]1C=CC=C[C@@]1(O)COC(=O)c1ccccc1
> 50 µM: all assays above

CC(=O)O[C@H]1C=C[C@@H](O)[C@H](O)[C@@]1(O)COC(=O)c1ccccc1
> 50 µM: all assays above

CC(=O)O[C@@H]1C=C[C@@H](OC(=O)c2ccccc2)[C@H](O)[C@]1(O)COC(=O)c1ccccc1
> 50 µM: all assays above

O=C(OC/C=C/C=C/[C@H](O)COC(=O)c1ccccc1)c1ccccc1
> 50 µM: all assays above

COc1ccc2c(c1)C[C@H]1[C@@H](OC(=O)c3ccccc3)[C@H](O)C(COC(=O)c3ccccc3)=C[C@H]1O2
> 50 µM: all assays above
